How the values were obtained:
CK2α = biological target: T1, CK2α (Homo sapiens, UniProt P68400); assay: Biochemical assay for inhibitors of CK2α kinase activity (ADP-Glo); settings: 0.2 nM CK2α, 50 μM peptide substrate, 15 μM ATP, read-out: Assay 1: CK2α Enzyme IC50
T1 construct: CK2α (residues 2-329) was produced in Escherichia coli BL21 (DE3) for kinase activity screening; His6 (N, cleaved yes); made in house; host or cells: Escherichia coli BL21 (DE3)
T1 sequence (P68400 2-329): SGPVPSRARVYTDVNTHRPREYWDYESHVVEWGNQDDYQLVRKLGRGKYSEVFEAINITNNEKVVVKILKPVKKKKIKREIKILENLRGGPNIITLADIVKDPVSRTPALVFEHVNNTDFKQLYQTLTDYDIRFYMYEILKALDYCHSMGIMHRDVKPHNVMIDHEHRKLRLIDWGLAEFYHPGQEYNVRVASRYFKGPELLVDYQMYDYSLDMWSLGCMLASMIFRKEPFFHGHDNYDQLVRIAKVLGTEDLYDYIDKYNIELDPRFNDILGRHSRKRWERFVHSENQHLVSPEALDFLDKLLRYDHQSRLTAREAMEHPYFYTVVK

CLK2 = biological target: T2, CLK2 (Homo sapiens, UniProt P49760); assay: Biochemical assay for inhibitors of CLK2 kinase activity (ADP-Glo); settings: 20 nM CLK2, 50 μM peptide substrate, 100 μM ATP, read-out: Assay 2: CLK2 Enzyme IC50
T2 construct: purchased Carna Biosciences 04-127

intracellular CK2α = biological target: T3, intracellular CK2α (Homo sapiens, UniProt P19784); assay: Cell-based NanoBRET assay for inhibitor binding to intracellular CK2α; settings: HCT116 cells transiently transfected with CSNK2A2-NanoLuc fusion vector; Tracer K-5; 2 h; read-out: Assay 3: NanoBRET ™ assay for binding to intracellular CK2α
T3 construct: host or cells: HCT116 (ATCC CCL-247)
How it was run: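 Living cells expressing NanoLuc-CK2α fusion were given a fixed tracer concentration, and compounds competitively displaced the reversibly bound tracer. Donor (450 nm) and acceptor (610 or 630 nm) emissions were read; BRET ratio = (acceptor/donor)×1,000, giving apparent intracellular affinity.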

T3 sequence (P19784 whole entry, the tested form may be a part): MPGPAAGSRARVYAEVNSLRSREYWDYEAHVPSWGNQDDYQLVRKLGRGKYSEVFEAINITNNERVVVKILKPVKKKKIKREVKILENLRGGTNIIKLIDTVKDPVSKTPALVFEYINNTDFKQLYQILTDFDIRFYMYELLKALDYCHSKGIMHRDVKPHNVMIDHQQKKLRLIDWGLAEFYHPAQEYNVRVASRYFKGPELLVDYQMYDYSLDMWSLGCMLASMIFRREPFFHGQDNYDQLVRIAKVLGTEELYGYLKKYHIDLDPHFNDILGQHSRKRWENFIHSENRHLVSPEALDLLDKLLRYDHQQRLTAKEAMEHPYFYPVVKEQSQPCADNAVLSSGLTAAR
T2 sequence (P49760 whole entry): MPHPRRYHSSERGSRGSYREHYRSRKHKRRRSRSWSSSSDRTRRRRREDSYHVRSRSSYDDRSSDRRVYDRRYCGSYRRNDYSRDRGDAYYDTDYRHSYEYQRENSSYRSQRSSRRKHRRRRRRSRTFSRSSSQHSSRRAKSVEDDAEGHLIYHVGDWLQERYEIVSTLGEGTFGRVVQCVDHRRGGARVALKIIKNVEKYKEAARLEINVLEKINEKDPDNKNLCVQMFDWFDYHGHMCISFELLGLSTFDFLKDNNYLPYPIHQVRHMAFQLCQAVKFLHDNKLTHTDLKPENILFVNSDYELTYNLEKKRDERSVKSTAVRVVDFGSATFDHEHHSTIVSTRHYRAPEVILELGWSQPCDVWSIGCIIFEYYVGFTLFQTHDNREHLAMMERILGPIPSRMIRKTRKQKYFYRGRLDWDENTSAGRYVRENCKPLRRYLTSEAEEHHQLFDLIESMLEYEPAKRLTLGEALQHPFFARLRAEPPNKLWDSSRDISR

Row | Molecule | IC50 (CK2α) | IC50 (CLK2) | IC50 (intracellular CK2α)
1 | O=C(CCNCc1ccc(-c2ccccc2)c(Cl)c1)NCCCNc1cc(-c2cccnc2)cc2[nH]ncc12 [Example 26, 3-(((2-chloro-[1,1'-biphenyl]-4-yl)methyl)amino)-N-(3-((6-(pyridin-3-yl)-1H-indazol-4-yl)amino)propyl)propanamide] | 20.4 nM | 4460 nM | 875 nM
2 | FC(F)(F)Oc1ccc(CNCCCNCCCOc2cc(-n3cnnc3)cc3[nH]ncc23)cc1Cl [Example 67, N1-(3-((6-(4H-1,2,4-triazol-4-yl)-1H-indazol-4-yl)oxy)propyl)-N3-(3-chloro-4-(trifluoromethoxy)benzyl)propane-1,3-diamine] | 278 nM | 4160 nM | 13800 nM
3 | FC(F)(F)Oc1ccc(CNCCc2nnc(CCNc3cc(-n4cnnc4)cc4[nH]ncc34)[nH]2)cc1Cl [Example 16, N-(2-(5-(2-((3-chloro-4-(trifluoromethoxy)benzyl)amino)ethyl)-4H-1,2,4-triazol-3-yl)ethyl)-6-(4H-1,2,4-triazol-4-yl)-1H-indazol-4-amine] | 14.1 nM | 371 nM | 3400 nM
4 | CN(CCCCNCc1ccc(OC(F)(F)F)c(Cl)c1)CCNc1cc(-n2cnnc2)cc2[nH]ncc12 [Example 72, N1-(2-((6-(4H-1,2,4-triazol-4-yl)-1H-indazol-4-yl)amino)ethyl)-N4-(3-chloro-4-(trifluoromethoxy)benzyl)-N1-methylbutane-1,4-diamine] | 0.7 nM | 431 nM | 294 nM
5 | FC(F)(F)c1ccc2[nH]c(CNCCCCOCCOc3cc(-c4ccnnc4)cc4[nH]ncc34)cc2c1 [Example 56, 4-(2-((6-(pyridazin-4-yl)-1H-indazol-4-yl)oxy)ethoxy)-N-((5-(trifluoromethyl)-1H-indol-2-yl)methyl)butan-1-amine] | 6.59 nM | 3150 nM | 387 nM
6 | Clc1cc(CNCCc2cn(CCNc3cc(-n4cnnc4)cc4[nH]ncc34)nn2)ccc1-c1ccccc1 [Example 14, N-(2-(4-(2-(((2-chloro-[1,1′-biphenyl]-4-yl)methyl)amino)ethyl)-1H-1,2,3-triazol-1-yl)ethyl)-6-(4H-1,2,4-triazol-4-yl)-1H-indazol-4-amine] | 1.6 nM | 322 nM | 2120 nM
7 | O=C(CCNCc1ccc(OC(F)(F)F)c(Cl)c1)NCCCNc1cc(-n2cnnc2)cc2[nH]ncc12 [Example 33, N-(3-((6-(4H-1,2,4-triazol-4-yl)-1H-indazol-4-yl)amino)propyl)-3-((3-chloro-4-(trifluoromethoxy)benzyl)amino)propanamide] | 0.48 nM | 77.8 nM | 452 nM
8 | O=C(CCNCc1ccc(OC(F)(F)F)c(Cl)c1)NCCC(=O)Nc1cc(-n2cnnc2)cc2[nH]ncc12 [Example 18, N-(6-(4H-1,2,4-triazol-4-yl)-1H-indazol-4-yl)-3-(3-((3-chloro-4-(trifluoromethoxy)benzyl)amino)propanamido)propanamide] | 2.81 nM | 1620 nM | 4420 nM
9 | c1cc(-c2cc(N3CC(OCCCCNCc4cc5cc(OC6CCC6)ccc5[nH]4)C3)c3cn[nH]c3c2)cnn1 [Example 109, N-((5-cyclobutoxy-1H-indol-2-yl)methyl)-4-((1-(6-(pyridazin-4-yl)-1H-indazol-4-yl)azetidin-3-yl)oxy)butan-1-amine] | 42.5 nM | 2920 nM | 2810 nM
10 | N-(2-(4-((3-chloro-4-(trifluoromethoxy)benzyl)amino)butoxy)ethyl)-6-(azetidine-4-yl)-1H-benzo[d][1,2,3]triazol-4-amine [Example 127] | 5.06 nM | 1380 nM | 306 nM
11 | N#Cc1cc(CNCCC(=O)NCCCNc2cc(-n3cnnc3)cc3[nH]ncc23)ccc1OC(F)(F)F [Example 46, N-(3-((6-(4H-1,2,4-triazol-4-yl)-1H-indazol-4-yl)amino)propyl)-3-((3-cyano-4-(trifluoromethoxy)benzyl)amino)propanamide] | 2.65 nM | 237 nM | 13400 nM
12 | O=C(O)CCc1cc(NCCOCCCCNCc2cc(F)c(OC(F)(F)F)c(F)c2)c2cn[nH]c2c1 [Example 201, 3-(4-((2-(4-((3,5-difluoro-4-(trifluoromethoxy)benzyl)amino)butoxy)ethyl)amino)-1H-indazol-6-yl)propanoic acid] | 0.87 nM | 7830 nM | 142 nM
13 | N#Cc1cc(NCCOCCCCNCc2cc(F)c(OC(F)(F)F)c(F)c2)c2cn[nH]c2c1 [Example 167, 4-((2-(4-((3,5-difluoro-4-(trifluoromethoxy)benzyl)amino)butoxy)ethyl)amino)-1H-indazole-6-carbonitrile] | 21 nM | 774 nM | 831 nM
14 | Cn1c(CNCCC(=O)NCCCNc2cc(-n3cnnc3)cc3[nH]ncc23)cc2ccc(Cl)cc21 [Example 36, N-(3-((6-(4H-1,2,4-triazol-4-yl)-1H-indazol-4-yl)amino)propyl)-3-(((6-chloro-1-methyl-1H-indol-2-yl)methyl)amino)propanamide] | 1.39 nM | 48.9 nM | 1400 nM

Second part, the molecule after the results:

Row | IC50 (CK2α) | IC50 (CLK2) | IC50 (intracellular CK2α) | Molecule
15 | 0.94 nM | 17 nM | 177 nM | Nc1cc(-c2cc(NCCCNC(=O)CCNCc3ccc(OC(F)(F)F)c(Cl)c3)c3cn[nH]c3c2)ccn1 [Example 184, N-(3-((6-(2-aminopyridin-4-yl)-1H-indazol-4-yl)amino)propyl)-3-((3-chloro-4-(trifluoromethoxy)benzyl)amino)propanamide]
16 | 4.72 nM | 271 nM | 347 nM | FC(F)(F)c1ccc2[nH]c(CNCCCCOCCOc3cc(-c4cnoc4)cc4[nH]ncc34)cc2c1 [Example 144, 4-(2-((6-(isoxazol-4-yl)-1H-indazol-4-yl)oxy)ethoxy)-N-((5-(trifluoromethyl)-1H-indol-2-yl)methyl)butan-1-amine]
17 | 2.98 nM | 242 nM | 134 nM | O=C(CCNCc1ccc(OC(F)(F)F)c(Cl)c1)NCCCNc1cc(-c2cnco2)cc2[nH]ncc12 [Example 164, 3-((3-chloro-4-(trifluoromethoxy)benzyl)amino)-N-(3-((6-(oxazol-5-yl)-1H-indazol-4-yl)amino)propyl)propanamide]
18 | 1.93 nM | 64.3 nM | 703 nM | Cc1[nH]ncc1-c1cc(NCCCNC(=O)CCNCc2ccc(OC(F)(F)F)c(Cl)c2)c2cn[nH]c2c1 [Example 159, 3-((3-chloro-4-(trifluoromethoxy)benzyl)amino)-N-(3-((6-(5-methyl-1H-pyrazol-4-yl)-1H-indazol-4-yl)amino)propyl)propanamide]
19 | 4.17 nM | 979 nM | 4590 nM | Cc1nc[nH]c1-c1cc(NCCCNC(=O)CCNCc2ccc(-c3ccccc3)c(Cl)c2)c2cn[nH]c2c1 [Example 91, 3-(((2-chloro-[1,1′-biphenyl]-4-yl)methyl)amino)-N-(3-((6-(4-methyl-1H-imidazol-5-yl)-1H-indazol-4-yl)amino)propyl)propanamide]
20 | 306 nM | 44700 nM | > 50000 nM | FC(F)(F)Oc1ccc(CNCCCCOCCOc2cc(-n3cnnc3)cc3[nH]nnc23)cc1Cl [Example 123, 4-(2-((6-(4H-1,2,4-triazol-4-yl)-1H-benzo[d][1,2,3]triazol-4-yl)oxy)ethoxy)-N-(3-chloro-4-(trifluoromethoxy)benzyl)butan-1-amine]
